The text below walks through data of PubChem BioAssay AID248 (DTP/NCI, 2004).

Toxic doses and inconclusive results are not listed.

The assay has as its system L1210 leukemia ip in BDF1 mice, survival T/C. The assay can be described thus: NCI In Vivo Anticancer Drug Screen. Data for tumor model L1210 Leukemia (intraperitoneal) in B6D2F1 (BDF1) mice. The conditions noted are these: endpoint: mean survival time, higher = longer survival. The method in brief:
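Tumor was transplanted into mice, which were then dosed with test compound or vehicle alone. Survival was recorded for each group, and the treated figure was expressed relative to the control figure.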

Setting [1] is: dose: 100.0 mg/kg/injection, schedule: Q01DX009 (ip), vehicle: saline with Tween-80.
Where [2] appears, read: dose: 200.0 mg/kg/injection, schedule: Q01DX009 (ip), vehicle: saline with Tween-80.
The mark [3] stands for this setting: dose: 400.0 mg/kg/injection, schedule: Q01DX009 (ip), vehicle: saline with Tween-80.
[4] abbreviates: dose: 50.0 mg/kg/injection, schedule: Q01DX001 (ip), vehicle: carboxymethylcellulose (CMC).
Where [5] appears, read: dose: 100.0 mg/kg/injection, schedule: Q01DX001 (ip), vehicle: carboxymethylcellulose (CMC).
Where [6] appears, read: dose: 200.0 mg/kg/injection, schedule: Q01DX001 (ip), vehicle: carboxymethylcellulose (CMC).
The mark [7] stands for this setting: dose: 400.0 mg/kg/injection, schedule: Q01DX001 (ip), vehicle: carboxymethylcellulose (CMC).
[8] abbreviates: dose: 100.0 mg/kg/injection, schedule: Q04DX002 (ip), vehicle: gum acacia.
The mark [9] stands for this setting: dose: 200.0 mg/kg/injection, schedule: Q04DX002 (ip), vehicle: gum acacia.
Setting [10] is: dose: 400.0 mg/kg/injection, schedule: Q04DX002 (ip), vehicle: gum acacia.
Where [11] appears, read: dose: 100.0 mg/kg/injection, schedule: Q04DX003 (ip), vehicle: saline with Tween-80.
Setting [12] is: dose: 200.0 mg/kg/injection, schedule: Q04DX003 (ip), vehicle: saline with Tween-80.
The mark [13] stands for this setting: dose: 400.0 mg/kg/injection, schedule: Q04DX003 (ip), vehicle: saline with Tween-80.
Where [14] appears, read: dose: 100.0 mg/kg/injection, schedule: Q04DX002 (ip), vehicle: saline with Tween-80.
The mark [15] stands for this setting: dose: 200.0 mg/kg/injection, schedule: Q04DX002 (ip), vehicle: saline with Tween-80.
The mark [16] stands for this setting: dose: 400.0 mg/kg/injection, schedule: Q04DX002 (ip), vehicle: saline with Tween-80.

On to `Oc1ccc(C/C=C/c2ccccc2)cc1`, for which the T/C was 98 % of control under setting [1], 96 % of control under setting [2] and 102 % of control under setting [3].
As to `Cc1ccc(N)cc1`, the T/C runs as follows: (dose: 100.0 mg/kg/injection, schedule: Q01DX001 (ip), vehicle: saline) 114 % of control; (dose: 200.0 mg/kg/injection, schedule: Q01DX001 (ip), vehicle: saline) 102 % of control.
`OC1c2ccccc2C(O)C2C3C=CC(CC3)C12` (stereo not drawn): the T/C under setting [4] is 93 % of control, the T/C under setting [5] was 98 % of control, the T/C under setting [6] is 98 % of control and the T/C under setting [7] was 98 % of control.
Take `OCCN1CCN(CCCN2c3ccccc3Oc3ccc(C(F)(F)F)cc32)CC1`: the T/C runs as follows: (dose: 25.0 mg/kg/injection, schedule: Q04DX003 (ip), vehicle: saline) 92 % of control; (dose: 50.0 mg/kg/injection, schedule: Q04DX003 (ip), vehicle: saline) 106 % of control.
For the compound `C1=Nc2c(ccc3ccccc23)CS1`, the T/C (dose: 100.0 mg/kg/injection, schedule: Q04DX002 (ip), vehicle: other) was 93 % of control.
As to `COc1cc(C=C(C#N)C#N)ccc1OC(=O)c1cc(OC)c(OC)c(OC)c1`, the T/C is, setting by setting: under setting [8], 98 % of control; under setting [9], 92 % of control; under setting [10], 92 % of control.
As to `O=c1cc(C(O)c2ccccc2)c2cccc3c2n1CCC3` (stereo not drawn), the T/C is 95 % of control under setting [1]; 98 % of control under setting [11]; 95 % of control under setting [2]; 95 % of control under setting [12]; 101 % of control under setting [3]; 89 % of control under setting [13].
As to `OC1(Cc2nccc3ccccc23)CCN(Cc2ccccc2)CC1`, the T/C is 89 % of control (dose: 100.0 mg/kg/injection, schedule: Q04DX003 (ip), vehicle: carboxymethylcellulose (CMC)) and 98 % of control (dose: 200.0 mg/kg/injection, schedule: Q04DX003 (ip), vehicle: carboxymethylcellulose (CMC)).
For the compound `CCCCCCCCCCC[CH2][Sn]([Cl])([CH2]CCCCCCCCCCC)[CH2]CCCCCCCCCCC`, the T/C reads like this: under setting [14], 96 % of control; under setting [15], 96 % of control; under setting [16], 93 % of control.
In the case of `C[n+]1ccc(/C=C/c2ccc(Cl)c(Cl)c2)cc1`, the T/C by setting is: (dose: 3.0 mg/kg/injection, schedule: Q01DX009 (ip), vehicle: Klucel (hydroxypropylcellulose) (HPC)) 105 % of control; (dose: 6.0 mg/kg/injection, schedule: Q01DX009 (ip), vehicle: Klucel (hydroxypropylcellulose) (HPC)) 93 % of control; (dose: 12.0 mg/kg/injection, schedule: Q01DX009 (ip), vehicle: Klucel (hydroxypropylcellulose) (HPC)) 93 % of control; (dose: 12.5 mg/kg/injection, schedule: Q04DX003 (ip), vehicle: Klucel (hydroxypropylcellulose) (HPC)) 104 % of control.
With `CC(C)c1ccc(/C=C/C(=O)c2ccc([N+](=O)[O-])cc2)cc1`, the T/C is 98 % of control under setting [8], 92 % of control under setting [9] and 95 % of control under setting [10].
Consider `C=C(C)C#CC(O)(C(=O)OCC)C1CCCCC1` (stereo not drawn), for which the T/C was 98 % of control (dose: 100.0 mg/kg/injection, schedule: Q01DX001 (ip), vehicle: other); 109 % of control (dose: 200.0 mg/kg/injection, schedule: Q01DX001 (ip), vehicle: other); 102 % of control (dose: 400.0 mg/kg/injection, schedule: Q01DX001 (ip), vehicle: other).
Regarding `OC1CC2(Cl)C(Cl)=C(Cl)C1(Cl)C2(Cl)Cl` (stereo not drawn), the T/C (dose: 75.0 mg/kg/injection, schedule: Q01DX001 (ip), vehicle: carboxymethylcellulose (CMC)) was 87 % of control; the T/C (dose: 150.0 mg/kg/injection, schedule: Q01DX001 (ip), vehicle: carboxymethylcellulose (CMC)) was 95 % of control; the T/C (dose: 300.0 mg/kg/injection, schedule: Q01DX001 (ip), vehicle: carboxymethylcellulose (CMC)) was 93 % of control.
Consider `CN(C)Cc1c(C(O)(c2ccccc2)c2ccccc2)cc2ccccc2c1Cl`, for which the T/C is, setting by setting: under setting [4], 94 % of control; under setting [5], 94 % of control; under setting [6], 102 % of control; under setting [7], 96 % of control.
As for `O/N=C/c1ccco1`, the T/C reads like this: under setting [14], 100 % of control; under setting [15], 103 % of control; under setting [16], 103 % of control.
For `CCCCCCCCCCCCCC(=O)CCC`, the T/C by setting is: under setting [1], 106 % of control; under setting [11], 86 % of control; under setting [2], 100 % of control; under setting [12], 110 % of control; under setting [3], 104 % of control; under setting [13], 100 % of control.
Consider `N#CC(C(=O)c1ccccc1)(C(=O)c1ccccc1)c1cccc2ccccc12`, for which the T/C reads like this: (dose: 50.0 mg/kg/injection, schedule: Q01DX009 (ip), vehicle: Klucel (hydroxypropylcellulose) (HPC)) 89 % of control; (dose: 100.0 mg/kg/injection, schedule: Q01DX009 (ip), vehicle: Klucel (hydroxypropylcellulose) (HPC)) 95 % of control; (dose: 100.0 mg/kg/injection, schedule: Q04DX003 (ip), vehicle: Klucel (hydroxypropylcellulose) (HPC)) 90 % of control; (dose: 200.0 mg/kg/injection, schedule: Q01DX009 (ip), vehicle: Klucel (hydroxypropylcellulose) (HPC)) 92 % of control; (dose: 200.0 mg/kg/injection, schedule: Q04DX003 (ip), vehicle: Klucel (hydroxypropylcellulose) (HPC)) 96 % of control; (dose: 400.0 mg/kg/injection, schedule: Q04DX003 (ip), vehicle: Klucel (hydroxypropylcellulose) (HPC)) 95 % of control.
For `CC(C#N)NCc1ccc2c(c1)OCO2` (stereo not drawn), the T/C under setting [4] is 112 % of control and the T/C under setting [6] was 96 % of control.
Regarding `O=[N+]([O-])c1ccc2cnn(CCCl)c2c1`, the T/C was 94 % of control under setting [5], 100 % of control under setting [6] and 108 % of control under setting [7].
Turning to `[Cl][Hg][c]1cccs1`, the T/C is 95 % of control (dose: 12.5 mg/kg/injection, schedule: Q01DX009 (ip), vehicle: Klucel (hydroxypropylcellulose) (HPC)) and 93 % of control (dose: 25.0 mg/kg/injection, schedule: Q01DX009 (ip), vehicle: Klucel (hydroxypropylcellulose) (HPC)).
On to `O=C1CC2C=CCC12` (stereo not drawn), for which the T/C was 95 % of control under setting [11], 93 % of control under setting [12] and 93 % of control under setting [13].
For the compound `S=C(Nc1ccc(C2=NCCN2)cc1)c1ccc(C(=S)Nc2ccc(C3=NCCN3)cc2)cc1`, the T/C reads like this: (dose: 1.0 mg/kg/injection, schedule: Q01DX Z (ip), vehicle: saline) 108 % of control; (dose: 2.0 mg/kg/injection, schedule: Q01DX Z (ip), vehicle: saline) 108 % of control; (dose: 4.0 mg/kg/injection, schedule: Q01DX Z (ip), vehicle: saline) 124 % of control; (dose: 15.0 mg/kg/injection, schedule: Q01DX Z (ip), vehicle: carboxymethylcellulose (CMC)) 219 % of control; (dose: 30.0 mg/kg/injection, schedule: Q01DX Z (ip), vehicle: carboxymethylcellulose (CMC)) 182 % of control; (dose: 30.0 mg/kg/injection, schedule: Q01DX Z (oral), vehicle: saline) 103 % of control. Besides, the T/C by setting is: (dose: 60.0 mg/kg/injection, schedule: Q01DX Z (ip), vehicle: carboxymethylcellulose (CMC)) 171 % of control; (dose: 60.0 mg/kg/injection, schedule: Q01DX Z (oral), vehicle: saline) 101 % of control; (dose: 120.0 mg/kg/injection, schedule: Q01DX Z (oral), vehicle: saline) 98 % of control; (dose: 240.0 mg/kg/injection, schedule: Q01DX Z (oral), vehicle: saline) 101 % of control; (dose: 480.0 mg/kg/injection, schedule: Q01DX Z (oral), vehicle: saline) 101 % of control; (dose: 960.0 mg/kg/injection, schedule: Q01DX Z (oral), vehicle: saline) 101 % of control.
In the case of `CS(=O)(=O)CC(=O)c1ccccc1`, the T/C runs as follows: (dose: 37.5 mg/kg/injection, schedule: Q01DX009 (ip), vehicle: saline with Tween-80) 87 % of control; (dose: 75.0 mg/kg/injection, schedule: Q01DX009 (ip), vehicle: saline with Tween-80) 90 % of control; under setting [11], 95 % of control; (dose: 150.0 mg/kg/injection, schedule: Q01DX009 (ip), vehicle: saline with Tween-80) 87 % of control; under setting [12], 96 % of control.
With `Nc1cc2c(cc1Br)-c1ccccc1/C2=N\O`, the T/C runs as follows: under setting [5], 102 % of control; under setting [6], 102 % of control; under setting [7], 100 % of control.
